# Patent publication US20230085307A1, “PYRIDAZINONE COMPOUND AND HERBICIDE” (NISSAN CHEMICAL CORPORATION, priority 2019, published 2023)
# How the values were obtained:
# wild oat [1] = experiment: Test Example 4: herbicidal effect by soil treatment (Table 19, symbol I); assay type: in vivo, wild oat (Avena fatua)
# Method in brief: (§1)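 Applied as a water-diluted emulsion, the compound was sprayed onto soil covering newly sown seeds. Evaluation came three weeks after application, in a greenhouse held at 25° C. to 30° C.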
# Italian ryegrass [2] = experiment: Test Example 4: herbicidal effect by soil treatment (Table 19, symbol K); assay type: in vivo, Italian ryegrass (Lolium multiflorum)
# Method in brief: as §1
# barnyard grass [3] = experiment: Test Example 4: herbicidal effect by soil treatment (Table 19, symbol H); assay type: in vivo, barnyard grass (Echinochloa crus-galli)
# Method in brief: as §1
# windgrass [4] = experiment: Test Example 5: herbicidal effect by foliage application, plastic box (Table 20, symbol L); assay type: in vivo, windgrass (Apera spica-venti); conditions: foliage application, 320 g/ha
# Method in brief: (§2)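 Sow seeds spot-wise in sterilized diluvial soil; cover with ~1.5 cm soil. Grow 14 days in greenhouse, 25° C. to 30° C. Spray foliage with emulsion diluted to predetermined amount. Rate effect after 3 weeks.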
# lambsquarters [5] = experiment: Test Example 4: herbicidal effect by soil treatment (Table 19, symbol O); assay type: in vivo, lambsquarters (Chenopodium album)
# Method in brief: as §1
# Italian ryegrass [6] = experiment: Test Example 5: herbicidal effect by foliage application, plastic box (Table 20, symbol K); assay type: in vivo, Italian ryegrass (Lolium multiflorum); conditions: foliage application, 320 g/ha
# Method in brief: as §2
# rice flat sedge = experiment: Test Example 3: herbicidal effect by foliage application, Wagner pot (Table 18, symbol E); assay type: in vivo, rice flat sedge (Cyperus iria)
# Method in brief: (§3)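 Plants were sown in alluvial soil held under 0.1–0.5 cm standing water and grown 14 days in a greenhouse at 25–30 °C. An emulsifiable formulation, water-diluted to the set dose, was then sprayed onto the foliage, and effects were scored three weeks later using previously defined criteria.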
# barnyard grass [7] = experiment: Test Example 5: herbicidal effect by foliage application, plastic box (Table 20, symbol H); assay type: in vivo, barnyard grass (Echinochloa crus-galli); conditions: foliage application, 320 g/ha
# Method in brief: as §2
# green foxtail [8] = experiment: Test Example 5: herbicidal effect by foliage application, plastic box (Table 20, symbol G); assay type: in vivo, green foxtail (Setaria viridis); conditions: foliage application, 320 g/ha
# Method in brief: as §2
# chickweed [9] = experiment: Test Example 4: herbicidal effect by soil treatment (Table 19, symbol P); assay type: in vivo, common chickweed (Stellaria media)
# Method in brief: as §1
# southern crabgrass [10] = experiment: Test Example 5: herbicidal effect by foliage application, plastic box (Table 20, symbol F); assay type: in vivo, southern crabgrass (Digitaria ciliaris); conditions: foliage application, 320 g/ha
# Method in brief: as §2
# blackgrass [11] = experiment: Test Example 4: herbicidal effect by soil treatment (Table 19, symbol J); assay type: in vivo, blackgrass (Alopecurus myosuroides)
# Method in brief: as §1
# green foxtail [12] = experiment: Test Example 4: herbicidal effect by soil treatment (Table 19, symbol G); assay type: in vivo, green foxtail (Setaria viridis)
# Method in brief: as §1
# persian speedwell [13] = experiment: Test Example 4: herbicidal effect by soil treatment (Table 19, symbol R); assay type: in vivo, Persian speedwell (Veronica persica)
# Method in brief: as §1
# oval-leafed pondweed = experiment: Test Example 1: herbicidal activity, application before weed generation under submerged conditions (Table 16, symbol C); assay type: in vivo, oval-leafed pondweed (Monochoria vaginalis)
# Method in brief: (§4)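 Submerged Wagner pots (alluvial soil, 4 cm water) sown with weed seeds and planted with 2.5-leaf rice seedlings; emulsifiable concentrate diluted in water applied to water surface on sowing day. Held in greenhouse at 25-30 °C; injury scored 0-5 by herbicidal rate after three weeks.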
# velvetleaf [14] = experiment: Test Example 4: herbicidal effect by soil treatment (Table 19, symbol M); assay type: in vivo, velvetleaf (Abutilon theophrasti)
# Method in brief: as §1
# lambsquarters [15] = experiment: Test Example 5: herbicidal effect by foliage application, plastic box (Table 20, symbol O); assay type: in vivo, lambsquarters (Chenopodium album); conditions: foliage application, 320 g/ha
# Method in brief: as §2
# Japanese bulrush = experiment: Test Example 1: herbicidal activity, application before weed generation under submerged conditions (Table 16, symbol B); assay type: in vivo, Japanese bulrush (Schoenoplectus juncoides)
# Method in brief: as §4
# windgrass [16] = experiment: Test Example 4: herbicidal effect by soil treatment (Table 19, symbol L); assay type: in vivo, windgrass (Apera spica-venti)
# Method in brief: as §1
# redroot pigweed [17] = experiment: Test Example 4: herbicidal effect by soil treatment (Table 19, symbol N); assay type: in vivo, redroot pigweed (Amaranthus retroflexus)
# Method in brief: as §1
# velvetleaf [18] = experiment: Test Example 5: herbicidal effect by foliage application, plastic box (Table 20, symbol M); assay type: in vivo, velvetleaf (Abutilon theophrasti); conditions: foliage application, 320 g/ha
# Method in brief: as §2
# false cleavers = experiment: Test Example 5: herbicidal effect by foliage application, plastic box (Table 20, symbol Q); assay type: in vivo, false cleavers (Galium spurium); conditions: foliage application, 320 g/ha
# Method in brief: as §2
# blackgrass [19] = experiment: Test Example 5: herbicidal effect by foliage application, plastic box (Table 20, symbol J); assay type: in vivo, blackgrass (Alopecurus myosuroides); conditions: foliage application, 320 g/ha
# Method in brief: as §2
# southern crabgrass [20] = experiment: Test Example 4: herbicidal effect by soil treatment (Table 19, symbol F); assay type: in vivo, southern crabgrass (Digitaria ciliaris)
# Method in brief: as §1
# wild oat [21] = experiment: Test Example 5: herbicidal effect by foliage application, plastic box (Table 20, symbol I); assay type: in vivo, wild oat (Avena fatua); conditions: foliage application, 320 g/ha
# Method in brief: as §2
# Chinese sprangletop = experiment: Test Example 3: herbicidal effect by foliage application, Wagner pot (Table 18, symbol D); assay type: in vivo, chinese sprangletop (Leptochloa chinensis)
# Method in brief: as §3
# late watergrass = experiment: Test Example 1: herbicidal activity, application before weed generation under submerged conditions (Table 16, symbol A); assay type: in vivo, late watergrass (Echinochloa oryzicola)
# Method in brief: as §4
# persian speedwell [22] = experiment: Test Example 5: herbicidal effect by foliage application, plastic box (Table 20, symbol R); assay type: in vivo, Persian speedwell (Veronica persica); conditions: foliage application, 320 g/ha
# Method in brief: as §2
# barnyard grass [23] = experiment: Test Example 3: herbicidal effect by foliage application, Wagner pot (Table 18, symbol H); assay type: in vivo, barnyard grass (Echinochloa crus-galli)
# Method in brief: as §3
# redroot pigweed [24] = experiment: Test Example 5: herbicidal effect by foliage application, plastic box (Table 20, symbol N); assay type: in vivo, redroot pigweed (Amaranthus retroflexus); conditions: foliage application, 320 g/ha, evaluated three weeks after application
# Method in brief: as §2
# chickweed [25] = experiment: Test Example 5: herbicidal effect by foliage application, plastic box (Table 20, symbol P); assay type: in vivo, common chickweed (Stellaria media); conditions: foliage application, 320 g/ha, evaluated three weeks after application
# Method in brief: as §2
# [26] = amount of applied herbicide 320 g/ha
# [27] = evaluated three weeks after application
structure (smiles),measurement,setting,value
CCOc1cc(F)ccc1-c1oc2ccc(C)cc2c1-c1c(O)c(C)nn(C)c1=O [9-011],"I: wild oat, herbicidal effect grade",wild oat [1]; [26],0 (Herbicidal rate of 5% or less (almost no effect))
same,"K: Italian ryegrass, herbicidal effect grade",Italian ryegrass [2]; [26],0 (Herbicidal rate of 5% or less (almost no effect))
same,"H: barnyard grass, herbicidal effect grade",barnyard grass [3]; [26],0 (Herbicidal rate of 5% or less (almost no effect))
same,herbicidal effect on windgrass (L),windgrass [4]; three weeks after application,1 (Herbicidal rate of 5% or more and less than 20%)
same,"O: lambsquarters, herbicidal effect grade",lambsquarters [5]; [26],4 (Herbicidal rate of 70% or more and less than 90%)
same,herbicidal effect on Italian ryegrass (K),Italian ryegrass [6]; three weeks after application,0 (Herbicidal rate of 5% or less (almost no effect))
same,"Herbicidal effect on E (rice flat sedge), foliage application",rice flat sedge; [26],4 (Herbicidal rate of 70% or more and less than 90%)
same,herbicidal effect on barnyard grass (H),barnyard grass [7]; three weeks after application,4 (Herbicidal rate of 70% or more and less than 90%)
same,herbicidal effect on green foxtail (G),green foxtail [8]; three weeks after application,2 (Herbicidal rate of 20% or more and less than 40%)
same,"P: chickweed, herbicidal effect grade",chickweed [9]; [26],1 (Herbicidal rate of 5% or more and less than 20%)
same,herbicidal effect on southern crabgrass (F),southern crabgrass [10]; three weeks after application,2 (Herbicidal rate of 20% or more and less than 40%)
same,"J: blackgrass, herbicidal effect grade",blackgrass [11]; [26],2 (Herbicidal rate of 20% or more and less than 40%)
same,"G: green foxtail, herbicidal effect grade",green foxtail [12]; [26],0 (Herbicidal rate of 5% or less (almost no effect))
same,"R: persian speedwell, herbicidal effect grade",persian speedwell [13]; [26],3 (Herbicidal rate of 40% or more and less than 70%)
same,"Herbicidal effect, C: oval-leafed pondweed",oval-leafed pondweed; [26],1 (Herbicidal rate of 5% or more and less than 20%)
same,"M: velvetleaf, herbicidal effect grade",velvetleaf [14]; [26],0 (Herbicidal rate of 5% or less (almost no effect))
same,herbicidal effect on lambsquarters (O),lambsquarters [15]; three weeks after application,4 (Herbicidal rate of 70% or more and less than 90%)
same,"Herbicidal effect, B: Japanese bulrush",Japanese bulrush; [26],2 (Herbicidal rate of 20% or more and less than 40%)
same,"L: windgrass, herbicidal effect grade",windgrass [16]; [26],3 (Herbicidal rate of 40% or more and less than 70%)
same,"N: redroot pigweed, herbicidal effect grade",redroot pigweed [17]; [26],3 (Herbicidal rate of 40% or more and less than 70%)
same,herbicidal effect on velvetleaf (M),velvetleaf [18]; three weeks after application,3 (Herbicidal rate of 40% or more and less than 70%)
same,herbicidal effect on false cleavers (Q),false cleavers; three weeks after application,4 (Herbicidal rate of 70% or more and less than 90%)
same,herbicidal effect on blackgrass (J),blackgrass [19]; three weeks after application,4 (Herbicidal rate of 70% or more and less than 90%)
same,"F: southern crabgrass, herbicidal effect grade",southern crabgrass [20]; [26],2 (Herbicidal rate of 20% or more and less than 40%)
same,herbicidal effect on wild oat (I),wild oat [21]; three weeks after application,3 (Herbicidal rate of 40% or more and less than 70%)
same,"Herbicidal effect on D (Chinese sprangletop), foliage application",Chinese sprangletop; [26],0 (Herbicidal rate of 5% or less (almost no effect))
same,"Herbicidal effect, A: late watergrass",late watergrass; [26],3 (Herbicidal rate of 40% or more and less than 70%)
same,herbicidal effect on persian speedwell (R),persian speedwell [22]; three weeks after application,4 (Herbicidal rate of 70% or more and less than 90%)
same,"Herbicidal effect on H (barnyard grass), foliage application",barnyard grass [23]; [26],5 (Herbicidal rate of 90% or more (almost completely withered))
COc1cc(F)ccc1-c1sc2ccc(F)cc2c1-c1c(O)c(C)nn(C)c1=O [2-083],"herbicidal effect rating, I: wild oat",wild oat [1]; 320 g/ha,3 (Herbicidal rate of 40% or more and less than 70%)
same,"herbicidal effect rating, K: Italian ryegrass",Italian ryegrass [2]; 320 g/ha,0 (Herbicidal rate of 5% or less (almost no effect))
same,"herbicidal effect rating, H: barnyard grass",barnyard grass [3]; 320 g/ha,1 (Herbicidal rate of 5% or more and less than 20%)
same,herbicidal effect on L: windgrass,windgrass [4]; [27],5 (Herbicidal rate of 90% or more (almost completely withered))
same,"herbicidal effect rating, O: lambsquarters",lambsquarters [5]; 320 g/ha,5 (Herbicidal rate of 90% or more (almost completely withered))
same,herbicidal effect on K: Italian ryegrass,Italian ryegrass [6]; [27],4 (Herbicidal rate of 70% or more and less than 90%)
same,"herbicidal effect on E (rice flat sedge), rating 0-5",rice flat sedge; 320 g/ha,5 (Herbicidal rate of 90% or more (almost completely withered))
same,herbicidal effect on H: barnyard grass,barnyard grass [7]; [27],5 (Herbicidal rate of 90% or more (almost completely withered))
same,herbicidal effect on G: green foxtail,green foxtail [8]; [27],5 (Herbicidal rate of 90% or more (almost completely withered))
same,"herbicidal effect rating, P: chickweed",chickweed [9]; 320 g/ha,4 (Herbicidal rate of 70% or more and less than 90%)
same,herbicidal effect on F: southern crabgrass,southern crabgrass [10]; [27],4 (Herbicidal rate of 70% or more and less than 90%)
same,"herbicidal effect rating, J: blackgrass",blackgrass [11]; 320 g/ha,5 (Herbicidal rate of 90% or more (almost completely withered))
same,"herbicidal effect rating, G: green foxtail",green foxtail [12]; 320 g/ha,2 (Herbicidal rate of 20% or more and less than 40%)
same,"herbicidal effect rating, R: persian speedwell",persian speedwell [13]; 320 g/ha,4 (Herbicidal rate of 70% or more and less than 90%)
same,Herbicidal effect on C: oval-leafed pondweed (grade 0-5),oval-leafed pondweed; 320 g/ha applied herbicide,3 (Herbicidal rate of 40% or more and less than 70%)
same,"herbicidal effect rating, M: velvetleaf",velvetleaf [14]; 320 g/ha,2 (Herbicidal rate of 20% or more and less than 40%)
same,herbicidal effect on O: lambsquarters,lambsquarters [15]; [27],5 (Herbicidal rate of 90% or more (almost completely withered))
same,Herbicidal effect on B: Japanese bulrush (grade 0-5),Japanese bulrush; 320 g/ha applied herbicide,1 (Herbicidal rate of 5% or more and less than 20%)
same,"herbicidal effect rating, L: windgrass",windgrass [16]; 320 g/ha,4 (Herbicidal rate of 70% or more and less than 90%)
same,herbicidal effect on N: redroot pigweed,redroot pigweed [24],5 (Herbicidal rate of 90% or more (almost completely withered))
same,"herbicidal effect rating, N: redroot pigweed",redroot pigweed [17]; 320 g/ha,5 (Herbicidal rate of 90% or more (almost completely withered))
same,herbicidal effect on M: velvetleaf,velvetleaf [18]; [27],5 (Herbicidal rate of 90% or more (almost completely withered))
same,herbicidal effect on P: chickweed,chickweed [25],5 (Herbicidal rate of 90% or more (almost completely withered))
same,herbicidal effect on Q: false cleavers,false cleavers; [27],5 (Herbicidal rate of 90% or more (almost completely withered))
same,herbicidal effect on J: blackgrass,blackgrass [19]; [27],5 (Herbicidal rate of 90% or more (almost completely withered))
same,"herbicidal effect rating, F: southern crabgrass",southern crabgrass [20]; 320 g/ha,4 (Herbicidal rate of 70% or more and less than 90%)
same,herbicidal effect on I: wild oat,wild oat [21]; [27],5 (Herbicidal rate of 90% or more (almost completely withered))
same,"herbicidal effect on D (Chinese sprangletop), rating 0-5",Chinese sprangletop; 320 g/ha,4 (Herbicidal rate of 70% or more and less than 90%)
same,Herbicidal effect on A: late watergrass (grade 0-5),late watergrass; 320 g/ha applied herbicide,2 (Herbicidal rate of 20% or more and less than 40%)
same,herbicidal effect on R: persian speedwell,persian speedwell [22]; [27],5 (Herbicidal rate of 90% or more (almost completely withered))
same,"herbicidal effect on H (barnyard grass), rating 0-5",barnyard grass [23]; 320 g/ha,5 (Herbicidal rate of 90% or more (almost completely withered))
